Measurements: patent US20250353848A1, “HETEROCYCLIC PAD4 INHIBITORS” (Celgene Corporation, priority 2022, published 2025)

Key:
[1] = biological target: T1, hPAD4 enzyme (Homo sapiens, UniProt Q9UM07); assay: RFMS Assay 2 (rapid-fire mass spectrum PAD4 inhibition assay, peptide substrate); assay type: biochemical; settings: 35 nM recombinant human PAD4, substrate TSTGGRQGSHH, room temperature for 30 minutes; read-out: human PAD4 (hPAD4) IC50, RFMS Assay 2
Method in brief: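 Recombinant human PAD4 (35 nM) reacted 30 min at room temperature with 500 µM peptide TSTGGRQGSHH in pH 7.4 HEPES, 200 mM NaCl, 2 mM CaCl2, 5 mM DTT, 1.2% DMSO. Quenched with formic acid; substrate and citrullinated product quantified by RapidFire MRM mass spectrometry.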

[2] = biological target: T1, hPAD4 enzyme; assay: RFMS Assay 1 (rapid-fire mass spectrum PAD4 inhibition assay, BAEE substrate); assay type: biochemical; settings: 5 nM hPAD4 enzyme, 250 μM BAEE, 30 mins compound and enzyme preincubation at 37° C., 90 min enzyme/substrate reaction
Method in brief: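 Human PAD4 (5 nM) preincubated 30 min at 37 °C with compound (top 50 μM, 0.5% DMSO), then 250 μM BAEE for 90 min at 37 °C in pH 7.5 HEPES with 50 μM calcium, 5 μM TPEN, 1 mM DTT. Product derivatized with phenyl glyoxal; citrulline product quantified by RapidFire MS/MS MRM, normalized to internal standard.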

T1 sequence (Q9UM07 whole entry): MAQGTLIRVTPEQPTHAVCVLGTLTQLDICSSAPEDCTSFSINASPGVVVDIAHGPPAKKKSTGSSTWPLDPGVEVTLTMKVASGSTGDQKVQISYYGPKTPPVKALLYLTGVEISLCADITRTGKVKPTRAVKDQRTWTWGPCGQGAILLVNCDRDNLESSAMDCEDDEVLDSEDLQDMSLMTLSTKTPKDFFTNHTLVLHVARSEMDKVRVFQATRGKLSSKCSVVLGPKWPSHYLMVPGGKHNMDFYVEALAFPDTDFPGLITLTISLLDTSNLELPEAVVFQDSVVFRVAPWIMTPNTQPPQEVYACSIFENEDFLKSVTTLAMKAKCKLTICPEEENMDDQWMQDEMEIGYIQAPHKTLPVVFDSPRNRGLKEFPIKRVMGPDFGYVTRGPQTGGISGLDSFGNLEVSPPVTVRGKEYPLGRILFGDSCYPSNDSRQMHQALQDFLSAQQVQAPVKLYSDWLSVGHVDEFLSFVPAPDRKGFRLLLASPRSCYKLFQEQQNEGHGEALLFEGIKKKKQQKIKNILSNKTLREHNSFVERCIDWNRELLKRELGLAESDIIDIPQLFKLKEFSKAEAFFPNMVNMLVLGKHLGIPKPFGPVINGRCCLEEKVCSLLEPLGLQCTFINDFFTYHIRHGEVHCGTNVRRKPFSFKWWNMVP

SMILES | IC50 [1] [nM] | IC50 [2] [nM]
Cn1c(-c2cc3ccnc(OC[C@@H]4CNC(=O)C4)c3n2CC2CC2)nc2cc3c(nc21)CCN(C[C@H](N)CF)C3=O [Example 82, 7-((S)-2-amino-3-fluoropropyl)-2-(1-(cyclopropylmethyl)-7-(((S)-5-oxopyrrolidin-3-yl)methoxy)-1H-pyrrolo[2,3-c]pyridin-2-yl)-3-methyl-3,5,6,7-tetrahydro-8H-imidazo[4,5-b][1,6]naphthyridin-8-one] | 101 to 500 | 101 to 500
Cn1c(-c2cc3ccnc(OCCn4ccnc4)c3n2CC2CC2)nc2cc3c(nc21)CCN(C[C@H](N)CF)C3=O [Example 84, (S)-2-(7-(2-(1H-imidazol-1-yl)ethoxy)-1-(cyclopropylmethyl)-1H-pyrrolo[2,3-c]pyridin-2-yl)-7-(2-amino-3-fluoropropyl)-3-methyl-3,5,6,7-tetrahydro-8H-imidazo[4,5-b][1,6]naphthyridin-8-one] | 11 to 100 | ≤ 10
C[C@H](COc1cccc2cc(-c3nc4cc5c(nc4n3C)CCN(C[C@H](N)CF)C5=O)n(CC3CC3)c12)n1cnc(F)c1 [Example 85, 7-((S)-2-amino-3-fluoropropyl)-2-(1-(cyclopropylmethyl)-7-((R)-2-(4-fluoro-1H-imidazol-1-yl)propoxy)-1H-indol-2-yl)-3-methyl-3,5,6,7-tetrahydro-8H-imidazo[4,5-b][1,6]naphthyridin-8-one] | 11 to 100 | ≤ 10
[2H]C([2H])(Oc1cccc2cc(-c3nc4cc5c(nc4n3C)CCN(C[C@H](N)CF)C5=O)n(CC3CC3)c12)C([2H])([2H])n1ccnc1 [Example 95, (S)-2-(7-(2-(1H-imidazol-1-yl)ethoxy-1,1,2,2-d4)-1-(cyclopropylmethyl)-1H-indol-2-yl)-7-(2-amino-3-fluoropropyl)-3-methyl-3,5,6,7-tetrahydro-8H-imidazo[4,5-b][1,6]naphthyridin-8-one] | 11 to 100 | ≤ 10

More lines, now with the values ahead:

IC50 [1] [nM] | IC50 [2] [nM] | SMILES
101 to 500 | 11 to 100 | Cc1cncn1CCOc1cccc2cc(-c3nc4cc5c(nc4n3C)CCN(C[C@H](N)CF)C5=O)n(CC3CC3)c12 [Example 71, (S)-7-(2-amino-3-fluoropropyl)-2-(1-(cyclopropylmethyl)-7-(2-(5-methyl-1H-imidazol-1-yl)ethoxy)-1H-indol-2-yl)-3-methyl-3,5,6,7-tetrahydro-8H-imidazo[4,5-b][1,6]naphthyridin-8-one]
101 to 500 | 11 to 100 | Cc1cn(CCOc2cccc3cc(-c4nc5cc6c(nc5n4C)CCN(C[C@H](N)CF)C6=O)n(CC4CC4)c23)cn1 [Example 72, (S)-7-(2-amino-3-fluoropropyl)-2-(1-(cyclopropylmethyl)-7-(2-(4-methyl-1H-imidazol-1-yl)ethoxy)-1H-indol-2-yl)-3-methyl-3,5,6,7-tetrahydro-8H-imidazo[4,5-b][1,6]naphthyridin-8-one]
11 to 100 | ≤ 10 | C[C@@H](COc1cccc2cc(-c3nc4cc5c(nc4n3C)CCN(C[C@H](N)CF)C5=O)n(CC3CC3)c12)n1cnc(F)c1 [Example 86, 7-((S)-2-amino-3-fluoropropyl)-2-(1-(cyclopropylmethyl)-7-((S)-2-(4-fluoro-1H-imidazol-1-yl)propoxy)-1H-indol-2-yl)-3-methyl-3,5,6,7-tetrahydro-8H-imidazo[4,5-b][1,6]naphthyridin-8-one]
101 to 500 | ≤ 10 | Cn1c(-c2cc3cccc(OCC(C)(C)n4ccnc4)c3n2CC2CC2)nc2cc3c(nc21)CCN(C[C@H](N)CF)C3=O [Example 96, (S)-2-(7-(2-(1H-imidazol-1-yl)-2-methylpropoxy)-1-(cyclopropylmethyl)-1H-indol-2-yl)-7-(2-amino-3-fluoropropyl)-3-methyl-3,5,6,7-tetrahydro-8H-imidazo[4,5-b][1,6]naphthyridin-8-one]
